Values quoted from earlier work in paper PMC6323428, “Elucidation of the Intestinal Absorption Mechanism of Loganin in the Human Intestinal Caco-2 Cell Model” (Evidence-based Complementary and Alternative Medicine : eCAM, 2018).

Test system: human intestinal Caco-2 cells
Parameters: method as in PMID 27531366
Conditions: Caco-2 cells model, chiefly passive diffusion; cited from earlier work

With `COC(=O)C1=CO[C@@H](O[C@@H]2O[C@H](CO)[C@@H](O)[C@H](O)[C@H]2O)[C@@H]2C(CO)=CC[C@H]12` [geniposide] as the compound, how does the “Intestinal permeability (in words)” value read?
Its value is “good”.
